From patent US12048678B2, “Compounds for treating myelin related disorders” (Case Western Reserve University, priority 2018, dated 2024)

How the values were obtained:
[1] = tested on: EpiSC derived OPCs on microfibers; experiment: Oligodendrocyte formation and imaging on electrospun microfibers; format: cell-based, mouse; details: FIG. 4b
Protocol: A 12-well plate containing Mimetex aligned scaffold (microfiber plate, AMSBIO, AMS.TECL-006-1X, Electrospun poly-L-lactide Scaffold, […] fibre diameter cell crown inserts) was prepared as previously described. Briefly, fiber inserts were sterilized with 70% ethanol and washed with PBS before being coated with polyornithine and laminin. After laminin coating, 100,000 cells/mL of EpiSC derived OPCs (1.5 mL/well) were plated in differentiation medium. After 24 h the media was replaced with fresh media containing small molecule treatments. Every 48 h the media was replaced with fresh compound containing media for the first 4 days of 14 days culture. Microfibre inserts were fixed with 4% PFA, permeabilized with 0.1% Triton X-100, and blocked with 10% donkey serum (v/v) in PBS for 60 min. Then stained for MBP (Abcam, ab7349; 1:100) and DAPI staining (Sigma; 5 μg/ml). […] The mounted inserts were imaged on the Operetta High Content Imaging and Analysis system (PerkinElmer) and a set of 22 fields captured from each condition resulting in an average of 2000 cells being scored per well. The total microfiber area was calculated using bright filed imaging and a spot finding function (area larger than 2 p×2). The MBP+ pixel area within the defined microfiber area was then defined and the percentage of the total microfiber area calculated.

[2] = molecular target: T1, estrogen receptor (T47D cells) (Homo sapiens, UniProt P03372); experiment: Estrogen-dependent cell proliferation assay; format: cell-based; details: Compound 1 at 1 μM, TASIN-1 100 nM
T1 construct: estrogen dependent growth of T47D cells; endogenous in cells; host or cells: T47D
T1 sequence (P03372 1-595): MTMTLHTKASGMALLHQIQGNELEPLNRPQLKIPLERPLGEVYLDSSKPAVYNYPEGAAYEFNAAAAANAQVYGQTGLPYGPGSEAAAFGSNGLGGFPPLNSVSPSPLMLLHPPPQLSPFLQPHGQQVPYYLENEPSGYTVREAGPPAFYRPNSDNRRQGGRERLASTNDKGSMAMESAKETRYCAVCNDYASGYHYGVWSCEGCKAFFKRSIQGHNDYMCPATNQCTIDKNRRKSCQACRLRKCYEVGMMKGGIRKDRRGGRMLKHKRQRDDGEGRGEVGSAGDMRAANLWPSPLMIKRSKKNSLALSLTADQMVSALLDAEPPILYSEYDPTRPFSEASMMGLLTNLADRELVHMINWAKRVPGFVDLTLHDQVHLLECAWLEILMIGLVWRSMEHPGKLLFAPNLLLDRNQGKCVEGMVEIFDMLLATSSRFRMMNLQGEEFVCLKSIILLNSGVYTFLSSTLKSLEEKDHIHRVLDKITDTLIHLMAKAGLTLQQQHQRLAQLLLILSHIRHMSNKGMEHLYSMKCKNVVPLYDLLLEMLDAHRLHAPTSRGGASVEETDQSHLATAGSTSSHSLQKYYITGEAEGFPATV
Protocol: Estrogen-dependent cell proliferation was measured as previously described with minor modifications. After growth in estrogen-free media (Phenol red-free RPMI supplemented with 10% charcoal stripped fetal bovine serum) for 5 days, cells were seeded at 2,500 cells/well into 96 well plates. The following day 3× drug containing media was added to triplicate wells and cells were allowed to grow for an additional 5 days at 37° C. in standard a 5% CO2 humidified incubator. Total DNA per well was measured using an adaptation of the method of Labarca and Paigen. At this time media was removed, cells were washed one time with 0.25×PBS and 100 μl of distilled water was added. […] After incubation at room temperature for 2 hours, plates were read in a SpectraMax i3 fluorescent plate reader (Molecular Devices, Sunnyvale, CA) with excitation at 360 nm and emission at 460 nm. All values were converted to microgram DNA per well using a standard curve derived from purified salmon testes DNA.

[3] = molecular target: T2, M1 muscarinic receptor (Homo sapiens, UniProt P11229); experiment: Muscarinic receptor antagonism assay (GeneBLAzer M1-NFAT-bla CHO-K1 cells); format: cell-based; details: Compound 1 at 1 μM, TASIN-1 100 nM; concentration maximally effective for oligodendrocyte formation
T2 sequence (P11229 1-460): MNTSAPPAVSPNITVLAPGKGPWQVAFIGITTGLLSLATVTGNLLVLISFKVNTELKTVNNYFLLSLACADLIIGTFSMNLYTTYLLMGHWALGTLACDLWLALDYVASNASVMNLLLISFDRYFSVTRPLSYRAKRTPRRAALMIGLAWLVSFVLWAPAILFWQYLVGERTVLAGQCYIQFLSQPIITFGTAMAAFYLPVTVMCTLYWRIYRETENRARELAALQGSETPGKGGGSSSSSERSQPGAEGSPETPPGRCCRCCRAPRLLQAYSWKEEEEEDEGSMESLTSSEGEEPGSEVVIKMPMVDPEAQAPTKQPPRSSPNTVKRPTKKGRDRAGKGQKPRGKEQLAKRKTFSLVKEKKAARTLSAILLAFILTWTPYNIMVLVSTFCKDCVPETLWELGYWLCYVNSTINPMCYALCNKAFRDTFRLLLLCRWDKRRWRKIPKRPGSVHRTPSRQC
Protocol: GeneBLAzer M1-NFAT-bla CHO-K1 cells (or M3- or M5-NFAT-bla CHO-K1 cells)(ThermoFisher) were thawed into Assay Media (DMEM, 10% dialyzed FBS, 25 mM HEPES pH 7.3, 0.1 mM NEAA). 10,000 cells/well were added to a 384-well TC treated assay plate and incubated 16-24 h at 37° C. 4 μl of a 10× stock of antimuscarinic molecules was added to the plate and incubated 30 min. 4 μl of 10× control agonist Carbachol at the pre-determined EC80 concentration was added to wells containing antimuscarinic molecules. The plate was incubated 5 h and 8 μl of 1 μM Substrate+Solution D Loading Solution was added to each well and the plate was incubated 2 h at room temperature before reading on a fluorescence plate reader.

[4] = tested on: cholesterol biosynthesis in OPCs (CYP51, TM7SF2, EBP); experiment: GC/MS-based sterol profiling in OPCs; format: cell-based, mouse; details: range of doses, GC-MS sterol profiling, FIG. 3f
Protocol: EpiSC-derived OPCs were plated at 0.5 million cells per ml in PDL- and laminin-coated six or twelve well plate with differentiation media. After 24 hours, cells were dissociated with Accutase, rinsed with saline, and cell pellets were frozen. For sterol analyses, cells were lysed in methanol (Sigma-Aldrich) with agitation for 30 minutes and cell debris removed by centrifugation at 10,000 rpm for 15 min. Cholesterol-d7 standard (25,26,26,26,27,27,27-^2H7-cholesterol, Cambridge Isotope Laboratories) was added before drying under nitrogen stream and derivatization with 55 μl of bis(trimethylsilyl)trifluoroacetamide/trimethylchlorosilane to form trimethylsilyl derivatives. Following derivatization at 60° C. for 20 minutes, 1 μl was analyzed by gas chromatography/mass spectrometry using an Agilent 5973 Network Mass Selective Detector equipped with a 6890 gas chromatograph system and a HP-5MS capillary column ([…]). Samples were injected in splitless mode and analyzed using electron impact ionization. Ion fragment peaks were integrated to calculate sterol abundance, and quantitation was relative to cholesterol-d7. The following m/z ion fragments were used to quantitate each metabolite: cholesterol-d7 (465), FF-Mas (482), cholesterol (368), zymostenol (458), zymosterol (456), desmosterol (456, 343), 7-dehydrocholesterol (456, 325), lanosterol (393), lathosterol (458), 14-dehydrozymostenol (456). Calibration curves were generated by injecting varying concentrations of sterol standards and maintaining a fixed amount of cholesterol-D7. The human glioma cell line GBM528 was a gift of Jeremy Rich (Cleveland Clinic). Human cortical spheroids were generated as described previously.

c1ccc(-c2ccc(CN3CCCCCCC3)cc2)cc1 [Compound 1]
area of microfibers wrapped by MBP+ oligodendrocytes [1]: substantially increased
effect in cell-based assay for the estrogen receptor (estrogen dependent growth of T47D cells) [2]: little affinity
effect in cell-based assay for the M1 muscarinic receptor [3]: little affinity
EBP inhibition in OPCs (zymostenol) [4]: enhanced potency for EBP inhibition
